Reference: US7109216B2 (priority 2001, dated 2006)
Like-named read-outs stand apart in the source and are kept apart here.

Experiments:
[1] = biological target: T1, human cannabinoid CB1 receptor (Homo sapiens, UniProt P21554); experiment: biochemical; type: binding; set-up: expressed in transfected cells; host or cells: Chinese hamster ovary (CHO) cells, membrane preparation; conditions: [3H]CP-55,940 radioligand, CHO cell membranes stably transfected with human CB1
Description: After incubation of a freshly prepared cell membrane preparation with the [^3H]-ligand, with or without addition of compounds of the invention, separation of bound and free ligand was performed by filtration over glassfiber filters. Radioactivity on the filter was measured by liquid scintillation counting.

[2] = biological target: T1, human cannabinoid CB1 receptor; experiment: Cannabinoid CB1 antagonistic activity, forskolin-induced cAMP accumulation in CHO cells; type: cell-based; set-up: expressed in transfected cells; host or cells: CHO cells
Description: The cannabinoid CB1 antagonistic activity of compounds of the invention was determined by functional studies using CHO cells in which human cannabinoid CB1 receptors were stably expressed. Adenylyl cyclase was stimulated using forskolin and measured by quantifying the amount of accumulated cyclic AMP. Concomitant activation of CB1 receptors by CB1 receptor agonists (e.g. CP-55,940 or (R)-WIN-55,212–2) can attenuate the forskolin-induced accumulation of cAMP in a concentration-dependent manner. This CB1 receptor-mediated response can be antagonized by CB1 receptor antagonists such as the compounds of the invention.

[3] = antagonism of CB1 agonist (e.g. CP-55,940 or (R)-WIN-55,212-2) effect on forskolin-induced cAMP accumulation, CHO cells expressing human CB1, read-out: hCB1 pA2 (converted)

T1 sequence (P21554 whole entry): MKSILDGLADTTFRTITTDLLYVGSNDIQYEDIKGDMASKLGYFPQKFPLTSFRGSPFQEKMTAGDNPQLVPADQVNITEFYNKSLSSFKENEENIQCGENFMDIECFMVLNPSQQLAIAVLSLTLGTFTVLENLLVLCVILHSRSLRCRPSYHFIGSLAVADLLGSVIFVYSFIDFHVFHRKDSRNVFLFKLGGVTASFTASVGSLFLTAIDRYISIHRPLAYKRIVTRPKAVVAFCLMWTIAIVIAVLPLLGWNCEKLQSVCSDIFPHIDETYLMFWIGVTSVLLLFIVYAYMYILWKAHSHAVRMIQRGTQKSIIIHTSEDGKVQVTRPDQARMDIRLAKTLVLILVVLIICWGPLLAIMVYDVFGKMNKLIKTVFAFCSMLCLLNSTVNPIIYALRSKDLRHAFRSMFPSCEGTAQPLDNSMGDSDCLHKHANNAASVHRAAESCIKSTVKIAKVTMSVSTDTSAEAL

Ki ([1]; read-out: hCB1 pKi (converted))	Structure (SMILES)	Ki ([1]; hCB1 pKi)	Kb [2, 3]	Kb [2]	melting point
	CCc1c(C(=O)NN2CCCCC2)nc(-c2ccc(Cl)cc2Cl)n1-c1ccc(Cl)cc1 [Example 15, 1-(4-Chlorophenyl)-2-(2,4-dichlorophenyl)-5-ethyl-N-(piperidin-1-yl)-1H-imidazole-4-carboxamide]	0.01 µM	0.000501 µM		
	O=C(NCc1ccc(F)cc1)c1cn(-c2ccc(Cl)cc2)c(-c2ccc(Cl)cc2Cl)n1 [Example 27, 1-(4-Chlorophenyl)-2-(2,4-dichlorophenyl)-N-(4-fluorobenzyl)-1H-imidazole-4-carboxamide]	0.0631 µM	0.00398 µM		
	Cc1c(C(=O)NN2CCCCC2)nc(-c2ccc(Cl)cc2Cl)n1-c1ccc(Cl)cc1 [Example 12, 1-(4-Chlorophenyl)-2-(2,4-dichlorophenyl)-5-methyl-N-(piperidin-1-yl)-1H-imidazole-4-carboxamide]	0.0126 µM	0.00126 µM		
	Cc1c(C(=O)NOC(C)(C)C)nc(-c2ccc(Cl)cc2Cl)n1-c1ccc(Br)cc1 [Example 16, 1-(4-Bromophenyl)-N-(t-butoxy)-2-(2,4-dichlorophenyl)-5-methyl-1H-imidazole-4-carboxamide]			0.0158 µM	
	O=C(NN1CCCCC1)c1cn(-c2ccc(Cl)cc2)c(-c2ccc(Cl)cc2F)n1 [Example 30, 1-(4-Chlorophenyl)-2-(2-fluoro-4-chlorophenyl)-N-(piperidin-1-yl)-1H-imidazole-4-carboxamide]	0.0251 µM			217 to 218 °C
	Cc1ccc(-c2nc(C(=O)NN3CCCCC3)c(C)n2-c2ccc(Cl)cc2)n1C [Example 70, 1-(4-Chlorophenyl)-2-(1,5-dimethyl-1H-pyrrol-2-yl)-5-methyl-N-(piperidin-1-yl)-1H-imidazole-4-carboxamide]	0.00501 µM			208 to 210 °C
	Cc1c(C(=O)NC2CCCCC2)nc(-c2cc(Cl)ccc2Cl)n1-c1ccccc1 [Example 96, N-Cyclohexyl-2-(2,5-dichlorophenyl)-5-methyl-1-phenyl-1H-imidazole-4-carboxamide]	0.00631 µM			236 °C
	Cc1c(C(=O)NC2CCCCC2)nc(-c2ccccc2Cl)n1-c1cccc(F)c1 [Example 73, 2-(2-Chlorophenyl)-N-cyclohexyl-1-(3-fluorophenyl)-5-methyl-1H-imidazole-4-carboxamide]	0.0126 µM			180 to 182.5 °C
0.501 µM	O=C(NC1CCCCC1)c1cn(-c2ccc(Cl)cc2)c(-c2ccc(Cl)cc2F)n1 [Example 33, N-Cyclohexyl-2-(2-fluoro-4-chlorophenyl)-1-(4-chlorophenyl)-1H-imidazole-4-carboxamide]				157 to 159 °C
0.251 µM	CCc1c(C(=O)NN2CCOCC2)nc(-c2ccc(Cl)cc2Cl)n1-c1ccc(Cl)cn1 [Example 76, 1-(5-Chloropyridin-2-yl)-2-(2,4-dichlorophenyl)-5-ethyl-N-(4-morpholinyl)-1H-imidazole-4-carboxamide]				223 °C
	O=C(NN1CCCCC1)c1nc(-c2ccc(Cl)cc2Cl)n(-c2ccc(Cl)cc2)c1CF [Example 114, 1-(4-chlorophenyl)-2-(2,4-dichlorophenyl)-5-fluoromethyl-N-(piperidin-1-yl)-1H-imidazole-4-carboxamide]	0.0631 µM			162 to 163 °C
	Cc1c(C(=O)NCc2cccc(C(F)(F)F)c2)nc(-c2ccc(Cl)cc2Cl)n1-c1ccc(Cl)cc1 [Example 105, 1-(4-Chlorophenyl)-2-(2,4-dichlorophenyl)-5-methyl-N-(3-(trifluoromethyl)benzyl)-1H-imidazole-4-carboxamide]	0.0316 µM			138 to 140 °C
0.126 µM	COc1ccc(-n2c(-c3ccc(Cl)cc3Cl)nc(C(=O)NC3CCCCC3)c2C)cc1 [Example 49, N-(1-cyclohexyl)-2-(2,4-dichlorophenyl)-5-methyl-1-(4-methoxyphenyl)-1H-imidazole-4-carboxamide]				160 to 161 °C
	Cc1c(C(=O)Nc2cccc(C(F)(F)F)c2)nc(-c2ccc(Cl)cc2Cl)n1-c1ccc(Cl)cc1 [Example 104, 1-(4-Chlorophenyl)-2-(2,4-dichlorophenyl)-5-methyl-N-(3-(trifluoromethyl)phenyl)-1H-imidazole-4-carboxamide]	0.00631 µM			177 °C
	CCc1c(C(=O)NN2CCCCC2)nc(-c2ccc(Cl)cc2Cl)n1-c1ccc(Cl)cn1 [Example 75, 1-(5-Chloropyridin-2-yl)-2-(2,4-dichlorophenyl)-5-ethyl-N-(piperidin-1-yl)-1H-imidazole-4-carboxamide]	0.1 µM			146 °C
0.2 µM	Cc1c(C(=O)NN2CCCCC2)nc(-c2ccc(Cl)cc2C(F)(F)F)n1-c1ccc(Cl)cc1 [Example 58, 1-(4-Chlorophenyl)-5-methyl-N-(piperidin-1-yl)-2-(2-trifluoromethyl-4-chlorophenyl)-1H-imidazole-4-carboxamide]				165 °C
	Cc1c(C(=O)NN2CCCCC2)nc(-c2cc(Cl)ccc2Cl)n1-c1ccccc1 [Example 95, 2-(2,5-Dichlorophenyl)-5-methyl-1-phenyl-N-(piperidin-1-yl)-1H-imidazole-4-carboxamide]	0.0631 µM			227 °C
0.398 µM	Cc1c(C(=O)NCCc2ccc(F)cc2)nc(-c2ccccc2Cl)n1-c1cccc(F)c1 [Example 74, 2-(2-Chlorophenyl)-1-(3-fluorophenyl)-N-(2-(4-fluorophenyl)ethyl)-5-methyl-1H-imidazole-4-carboxamide]				123.5 to 126 °C
0.501 µM	Cc1c(C(=O)NN2CCCCC2)nc(-c2ccc(Cl)cc2F)n1-c1ccc(Cl)cc1 [Example 66, 1-(4-Chlorophenyl)-2-(2-fluoro-4-chlorophenyl)-5-methyl-N-(piperidin-1-yl)-1H-imidazole-4-carboxamide]				195 °C
	Cc1c(C(=O)NN2CCCCC2)nc(-c2ccccc2Cl)n1-c1cccc(F)c1 [Example 71, 2-(2-Chlorophenyl)-1-(3-fluorophenyl)-5-methyl-N-(piperidin-1-yl)-1H-imidazole-4-carboxamide]	0.0398 µM			236 to 238 °C
	COc1ccc(-n2cc(C(=O)NN3CCCCC3)nc2-c2ccc(Cl)cc2Cl)cc1 [Example 35, 2-(2,4-Dichlorophenyl)-1-(4-methoxyphenyl)-N-(piperidin-1-yl)-1H-imidazole-4-carboxamide]	0.0501 µM			178 to 179 °C
	Cc1c(C(=O)NOC2CCCCO2)nc(-c2ccc(Cl)cc2Cl)n1-c1ccc(Cl)cc1 (stereo not drawn) [Example 83, 1-(4-Chlorophenyl)-2-(2,4-dichlorophenyl)-5-methyl-N-(tetrahydro-2H-pyran-2-yloxy)-1H-imidazole-4-carboxamide]	0.00398 µM			128 to 133 °C
	O=C(NC1CCCCC1)c1cn(-c2ccc(F)cc2)c(-c2ccc(Cl)cc2Cl)n1 [Example 32, N-Cyclohexyl-2-(2,4-dichlorophenyl)-1-(4-fluorophenyl)-1H-imidazole-4-carboxamide]	0.0251 µM			184 to 185 °C
	CCc1c(C(=O)NN2CCCCCC2)nc(-c2ccc(Cl)cc2Cl)n1-c1ccc(Cl)cn1 [Example 77, N-(1-Azepanyl)-1-(5-Chloropyridin-2-yl)-2-(2,4-dichlorophenyl)-5-ethyl-1H-imidazole-4-carboxamide]	0.0316 µM			177 °C
	Cc1c(C(=O)NC2CCCCC2)nc(-c2ccc(Cl)cc2F)n1-c1ccc(Cl)cc1 [Example 68, 1-(4-Chlorophenyl)-N-(cyclohexyl)-2-(2-fluoro-4-chlorophenyl)-5-methyl-1H-imidazole-4-carboxamide]	0.2 µM			188 °C
0.158 µM	Cc1c(C(=O)NC2CCCCC2)nc(-c2ccc(Cl)cc2Cl)n1-c1ccc(C(F)(F)F)cc1 [Example 47, N-Cyclohexyl-2-(2,4-dichlorophenyl)-5-methyl-1-(4-(trifluoromethyl)phenyl)-1H-imidazole-4-carboxamide]				178 to 179 °C
	Cc1ccc(-c2nc(C(=O)NC3CCCCC3)c(C)n2-c2ccc(Cl)cc2)n1C [Example 69, 1-(4-Chlorophenyl)-N-(cyclohexyl)-2-(1,5-dimethyl-1H-pyrrol-2-yl)-5-methyl-1H-imidazole-4-carboxamide]	0.0398 µM			188 to 189 °C
	COc1cc(Cl)ccc1-c1nc(C(=O)NN2CCCCC2)cn1-c1ccc(Cl)cc1 [Example 28, 1-(4-Chlorophenyl)-2-(2-methoxy-4-chlorophenyl)-N-(piperidin-1-yl)-1H-imidazole-4-carboxamide]	0.0631 µM			220 °C

Structure (SMILES)	Ki ([1]; read-out: hCB1 pKi (converted))	Ki ([1]; hCB1 pKi)	Kb [2, 3]	Kb [2]	melting point
Cc1c(C(=O)NN2CCOCC2)nc(-c2ccc(Cl)cc2Cl)n1-c1ccc(Cl)cn1 [Example 52, 1-(5-Chloropyridin-2-yl)-2-(2,4-dichlorophenyl)-5-methyl-N-(4-morpholinyl)-1H-imidazole-4-carboxamide]	0.501 µM			0.00251 µM	
